{
  "source": "paper PMC5775280",
  "about": "“Functional Characterization and Signaling Systems of Corazonin and Red Pigment Concentrating Hormone in the Green Shore Crab, Carcinus maenas” (Frontiers in Neuroscience, 2018)",
  "key": {"[1]": {"target": "T1, C. maenas RPCHR (red pigment concentrating hormone receptor) (Carcinus maenas, UniProt A0A2L0WQF2)", "T1 sequence (A0A2L0WQF2 1-529)": "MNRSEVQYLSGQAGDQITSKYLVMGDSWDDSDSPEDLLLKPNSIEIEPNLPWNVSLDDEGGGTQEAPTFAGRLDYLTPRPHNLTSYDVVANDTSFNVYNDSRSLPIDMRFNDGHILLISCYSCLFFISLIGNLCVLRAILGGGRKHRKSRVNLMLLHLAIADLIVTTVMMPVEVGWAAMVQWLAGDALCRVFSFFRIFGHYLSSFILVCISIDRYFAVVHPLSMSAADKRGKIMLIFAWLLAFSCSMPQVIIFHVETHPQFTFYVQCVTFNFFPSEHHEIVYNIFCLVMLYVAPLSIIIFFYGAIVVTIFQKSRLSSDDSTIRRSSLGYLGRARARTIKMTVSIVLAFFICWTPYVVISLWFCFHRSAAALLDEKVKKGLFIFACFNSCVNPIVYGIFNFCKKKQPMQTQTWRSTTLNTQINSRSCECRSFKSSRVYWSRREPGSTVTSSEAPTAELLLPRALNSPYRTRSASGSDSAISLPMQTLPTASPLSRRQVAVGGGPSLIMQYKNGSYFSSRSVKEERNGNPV", "assay": "Aequorin luminescence Ca2+ mobilization in CHO-K1-Aeq cells transiently expressing RPCHR", "format": "cell-based", "details": "CHO-K1-Aeq cells (without Gα16) transiently expressing RPCHR; luminescence response normalized to total Ca2+ response; dose response curves, means of n = 4", "protocol": "Chinese hamster ovary (CHO-K1) cells containing stably expressed apoaequorin (Perkin Elmer, Boston, MA) and either Gα16 or Gq subunit (control cells) were cultured in Dulbecco's Modified Eagle Medium (DMEM) F-12 Nutrient Mixture GlutaMax (Gibco®) supplemented with 10% fetal bovine serum (Gibco®). Cells were maintained in vented T75 flasks at 37°C in 5% CO2.\nCells grown in a monolayer to approximately 60% confluency in T75 flasks were transfected with pcDNA3.1 constructs using FugeneHD (Promega) according to the manufacturer's recommendations. Briefly, transfection medium was prepared by combining 800 μl Opti-MEM® (Gibco) with 10 μg vector and 30 μl Fugene HD in a 2 ml polystyrene tube and incubated for 10 min at room temperature. The transfection reagent was added to 5 ml of fresh culture media and the cells incubated overnight at 37°C in 5% CO2. After 24 h, an additional 10 ml of culture media were added to the flasks and the cells returned to 37°C at 5% CO2 for a further overnight incubation.\nOn the day of the assay, cells were detached from the culture flask by incubating for 12 min in 5 ml 0.2% EDTA in PBS. The cells were washed with 10 ml DMEM clear DMEM/F-12 containing L-glutamine, 15 mM HEPES and moved to 50 ml centrifuge tubes. Cells were centrifuged for 5 min at 260 g and resuspended to a concentration of 5 × 10^6 cells ml^−1 in 0.2 μm filtered BSA medium (DMEM/F-12 containing L-glutamine, 15 mM HEPES + 0.1% BSA). Coelenterazine h (Invitrogen, Paisley, UK) was added to a concentration of 5 μM and the cells incubated for 4 h in the dark at room temperature whilst gently rocking. The cells were diluted 10-fold and incubated for a further 60 min before use in the assay. Synthetic peptides (GeneCust, Dudelange, Luxembourg) were reconstituted in 30% acetonitrile, dried in small aliquots by vacuum centrifugation and subsequently redissolved in BSA medium. Fifty microliter aliquots were then dispensed into quadruplicate wells of a white 96-well plate (OptiPlate, PerkinElmer). Cell suspensions were gently stirred and injected in 50 μl aliquots into each well using a Mithras LB 940 microplate reader (Berthold Technologies, Bad-Wildbad, Germany) and light emission (Ca^2+ response) recorded for 30 s. Cells were then lysed by injection of 0.3% Triton-X in BSA medium and light emission recorded for a further 10 s to measure total Ca^2+ response. BSA medium was used for blank measurements (6 replicate wells per plate) and mock transfection with empty vectors carried out for negative controls. Data was analyzed using MikroWin v5.18 (Mikrotek Laborsysteme GmbH) and SigmaPlot v.13 (Systat Software, Inc.). Receptor response was normalized against total Ca^2+ response."}, "[2]": {"assay": "Hemolymph triglyceride levels after peptide injection", "format": "in vivo, Carcinus maenas", "details": "mean ± 1 SEM, n = 6, SEM", "protocol": "(§1) Adipokinetic and glucose mobilizing activity of […] and ACP were performed by measurement of triglycerides in hemolymph ([…] et al., [2014]) and glucose (Chung and Webster, [1996]). Hemolymph samples (ca. 100 μl) were taken from crabs injected with each peptide at 0 and 90 min, and subsequently assayed."}, "[3]": {"assay": "Hemolymph glucose levels after peptide injection", "format": "in vivo, Carcinus maenas", "details": "injection 100 pmol, n = 8", "protocol": "as §1"}, "semi-isolated heart": {"system": "semi-isolated heart", "assay": "Cardioactivity on semi-isolated heart preparations", "parameters": "species or system Carcinus maenas", "details": "superfusion, concentrations up to 10^−6 M, 20°C", "protocol": "Cardioactivity of […], and ACP was performed on semi-isolated heart preparations of C. maenas. Crabs (ca. 65 mm carapace width) were ice-anesthetized and rapidly decerebrated before removing all limbs and the dorsal carapace to expose the heart and pericardial cavity. The heart was connected to a force transducer (MLT0210/A) via a micro fishing hook (size 28) and fine nylon (0.08 mm) monofilament. Connection to a PC with Chart 4.0 was via a Bridge Pod (ML301) and Powerlab 4/20 (AD Instruments Pty Ltd, Castle Hill, NSW, Australia). Transducer gain was set at maximum sensitivity (200 μV). Heart preparations were initially perfused with C. maenas physiological saline (Saver et al., [1999]) at room temperature (20°C). Once a stable heart output was achieved, hearts were firstly perfused with 1 ml saline, followed by increasing concentrations of peptides, applied in 1 ml. Crustacean cardioactive peptide (CCAP) (Bachem, Bubendorf, Switzerland), or proctolin (Sigma, Poole, UK) were positive controls (10^-11-10^-7 M). Test peptides ([…]) were perfused at 10^-8-10^-6 M for approximately 2 min at each concentration."}, "[4]": {"assay": "Hemolymph triglyceride levels after peptide injection", "format": "in vivo, Carcinus maenas", "details": "lipid mobilization bioassay"}},
  "note": "Peptide text beside a SMILES is read from it.",
  "data": [
    {"smiles": "CC(C)C[C@H](NC(=O)[C@@H]1CCC(=O)N1)C(=O)N[C@@H](CC(N)=O)C(=O)N[C@@H](Cc1ccccc1)C(=O)N[C@@H](CO)C(=O)N1CCC[C@H]1C(=O)NCC(=O)N[C@@H](Cc1c[nH]c2ccccc12)C(N)=O", "note": "[RPCH] (HELM PEPTIDE1{[Glp].L.N.F.S.P.G.W.[am]}$$$$V2.0)", "values": [
      {"measurement": "EC50", "setting": "[1]", "value": 0.02, "unit": "nM"},
      {"measurement": "hemolymph triglyceride levels, 0 min", "setting": "[2]; injection 100 pmol per crab", "value": "0.14 ± 0.14", "unit": "µg/µL"},
      {"measurement": "hemolymph triglyceride levels, 90 min", "setting": "[2]; injection 100 pmol per crab, no significant change over 90 min", "value": "0.86 ± 0.4", "unit": "µg/µL"},
      {"measurement": "hemolymph triglyceride levels, 0 min", "setting": "[2]; repeat experiment, injection 10 pmol", "value": "0.49 ± 0.27", "unit": "µg/µL"},
      {"measurement": "hemolymph triglyceride levels, 90 min", "setting": "[2]; repeat experiment, injection 10 pmol, no significant change", "value": "0.20 ± 0.28", "unit": "µg/µL"},
      {"measurement": "hemolymph triglyceride levels, 0 min", "setting": "[2]; repeat experiment, injection 100 pmol", "value": "1.65 ± 0.59", "unit": "µg/µL"},
      {"measurement": "hemolymph triglyceride levels, 90 min", "setting": "[2]; repeat experiment, injection 100 pmol, no significant change", "value": "0.78 ± 0.44", "unit": "µg/µL"},
      {"measurement": "effect of eyestalk removal on the glucose response", "setting": "[3]; eyestalk removal, 90 min", "value": "completely abolished this response"},
      {"measurement": "effect on circulating glucose levels, intact crabs", "setting": "[3]; within 90 min, Student's matched pair t-test P < 0.01", "value": "significantly raised circulating glucose levels"},
      {"measurement": "cardioacceleratory effect on semi-isolated hearts", "setting": "semi-isolated heart", "value": "completely without cardioacceleratory effect"},
      {"measurement": "effect on hemolymph diacylglycerol levels", "setting": "[4]", "value": "completely without effect"}
    ]}
  ]
}
